Experimental data: paper PMC11183791, “Vancomycin population pharmacokinetics and dosing proposal for the initial treatment in obese adult patients” (Frontiers in Pharmacology, 2024)
≈ marks a conversion by molar mass, not a printed value.

Legend:
[1] = tested on: isolated bacterial strain (Staphylococcus spp., Enterococcus spp., Klebsiella pneumoniae, Streptococcus agalactiae); details: isolated bacterial strains of the study patients
[2] = Vancomycin trough serum levels after loading dose with and without the guidance of clinical pharmacists (TDM, KIMS immunoturbidimetry); assay type: in vivo, human
Experimental: The lower limits of detection and quantitation were 1.5 and 4.0 mg/L, respectively, and the measuring range was from 4.0 to 80.0 mg/L. Only levels measured during initial vancomycin therapy (first 3 days of treatment) were included in the PK analysis. If available, the MIC value of vancomycin for the isolated bacterial strain was also recorded.
Vancomycin t1/2 was calculated from Vd and clearance (CL) values using the following formula: t1/2 = 0.693 × Vd/CL. Descriptive parameter medians and interquartile range (IQR) were calculated using MS Excel 2013 (Microsoft Corporation, Redmond, United States). The Mann–Whitney U-test was used to compare vancomycin loading doses (LDs)with and without the guidance of clinical pharmacists and compare trough levels reached after loading dose administration. The linear regression model was used to evaluate the relationships between vancomycin PK parameters (Vd and CL) and continuous variables (BW, LBM, BSA, BMI, creatinine, and cystatin C-based eGFR). GraphPad Prism software version 8.2.1 (GraphPad Inc., La Jolla, CA, USA) was used for all comparisons, and p-levels <0.05 were considered statistically significant.

[3] = cited from earlier work
[4] = bootstrap analysis, 250 replicates
[5] = obese adults (BMI ≥30 kg/m^2), n = 138, iv infusion, first 3 days of treatment, one-compartment model

CN[C@H](CC(C)C)C(=O)N[C@H]1C(=O)N[C@@H](CC(N)=O)C(=O)N[C@H]2C(=O)N[C@H]3C(=O)N[C@H](C(=O)N[C@H](C(=O)O)c4cc(O)cc(O)c4-c4cc3ccc4O)[C@H](O)c3ccc(c(Cl)c3)Oc3cc2cc(c3O[C@@H]2O[C@H](CO)[C@@H](O)[C@H](O)[C@H]2O[C@H]2C[C@](C)(N)[C@H](O)[C@H](C)O2)Oc2ccc(cc2Cl)[C@H]1O [vancomycin, Vancomycin]
MIC, median (min–max) [1]: 1 (≤0.5–2) mg/L | MIC, modus [1]: 1 µg/mL (≈ 0.69 µM) | median trough level after LD relative to the recommended therapeutic range (15–20 mg/L) ([2]; LD with the guidance of clinical pharmacists): in | median trough level after LD relative to the recommended therapeutic range (15–20 mg/L) ([2]; LD without the guidance of clinical pharmacists): out of the recommended therapeutic range | elimination half-life (t1/2) ([3]; can be prolonged in renal insufficiency, ref Rybak, 2006): 6 to 12 h | distribution half-life ([3]; ref Matzke et al., 1986): approximately 7 min | distribution phase duration ([3]; ref Matzke et al., 1986): approximately 0.5 h | absorption after oral administration ([3]; ref Rybak et al., 2009): not absorbed efficiently | portion of dose excreted unchanged via glomerular filtration ([3]; ref Rybak, 2006): majority | contribution of the distribution phase to total vancomycin exposure ([3]; ref Shingde et al., 2019): < 10% | CL_pop, bootstrap median (95% CI) [4]: 1.27 (1.24–1.31) L/h | Vd_pop, bootstrap median (95% CI) [4]: 79.3 (77.8–80.9) L | β_CL_LBM, bootstrap median (95% CI) [4]: 0.011 (0.0108–0.0113) kg | β_CL_eGFR, bootstrap median (95% CI) [4]: 0.61 (0.60–0.63) mL/s/1.73 m^2 | CL, median (interquartile range) of individual estimates (conditional modes) [5]: 6.65 (4.95–8.42) L/h | Vd, median (interquartile range) of individual estimates (conditional modes) [5]: 74.0 (70.5–75.4) L | elimination half-life t1/2, median (interquartile range) of individual estimates (obese adults, n = 138, t1/2 = 0.693 × Vd/CL): 7.7 (6.0–10.0) h | t1/2 corresponding to estimated CL and Vd of 75 L (patient with LBM of 68 kg and eGFR of 1.51 mL/s/1.73 m^2): 7.4 h | CL estimated from the final covariate equation (patient with LBM of 68 kg and eGFR of 1.51 mL/s/1.73 m^2 (median values of the study population)): 7 L/h | Vd_pop, final model estimate (typical value of parameter, final covariate population PK model, obese adults): 75.0 L | CL_pop, final model estimate (typical value, CL=CL_pop×e^(β_CL_eGFR×eGFR)×e^(β_CL_LBM×LBM)): 1.32 L/h
